{"source": "ChEMBL document CHEMBL1157712", "about": "“Hit to lead account of the discovery of bisbenzamide and related ureidobenzamide inhibitors of Rho kinase” (J Med Chem, 2010)", "key": {"[1]": {"molecular_target": "Serine/threonine-protein kinase Nek7 (Homo sapiens) (UniProt Q8TDX7)", "sequence (Q8TDX7 whole entry, looked up)": "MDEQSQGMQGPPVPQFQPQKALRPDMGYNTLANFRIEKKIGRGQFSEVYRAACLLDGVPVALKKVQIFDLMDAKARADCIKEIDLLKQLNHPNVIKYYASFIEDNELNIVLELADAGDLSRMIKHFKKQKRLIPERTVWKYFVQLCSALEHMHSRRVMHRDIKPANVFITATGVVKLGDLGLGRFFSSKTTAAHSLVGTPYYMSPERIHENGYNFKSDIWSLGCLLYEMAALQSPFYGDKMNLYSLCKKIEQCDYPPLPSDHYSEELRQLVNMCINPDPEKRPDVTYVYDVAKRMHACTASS", "conditions": "3 to 6 uM", "description": "Inhibition of NEK7 at 3 to 6 uM relative to control"}, "[2]": {"molecular_target": "MAP kinase-activated protein kinase 5 (Homo sapiens) (UniProt Q8IW41)", "sequence (Q8IW41 whole entry)": "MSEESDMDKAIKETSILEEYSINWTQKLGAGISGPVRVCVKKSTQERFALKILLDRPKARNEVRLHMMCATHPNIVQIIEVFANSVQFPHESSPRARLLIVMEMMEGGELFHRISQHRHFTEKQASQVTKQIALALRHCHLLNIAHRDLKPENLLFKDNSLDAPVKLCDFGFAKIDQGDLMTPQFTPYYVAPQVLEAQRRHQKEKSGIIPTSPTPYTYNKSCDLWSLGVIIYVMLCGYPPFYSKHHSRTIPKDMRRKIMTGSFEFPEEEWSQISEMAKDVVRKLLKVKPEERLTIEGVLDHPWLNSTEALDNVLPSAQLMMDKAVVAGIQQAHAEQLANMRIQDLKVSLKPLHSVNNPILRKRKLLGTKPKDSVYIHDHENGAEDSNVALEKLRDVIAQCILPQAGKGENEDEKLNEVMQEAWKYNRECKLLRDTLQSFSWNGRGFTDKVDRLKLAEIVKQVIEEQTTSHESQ", "conditions": "3 to 6 uM", "description": "Inhibition of PRAK at 3 to 6 uM relative to control"}, "[3]": {"molecular_target": "Discoidin domain-containing receptor 2 (Homo sapiens) (UniProt Q16832)", "sequence (Q16832 whole entry, the tested form may be a part)": "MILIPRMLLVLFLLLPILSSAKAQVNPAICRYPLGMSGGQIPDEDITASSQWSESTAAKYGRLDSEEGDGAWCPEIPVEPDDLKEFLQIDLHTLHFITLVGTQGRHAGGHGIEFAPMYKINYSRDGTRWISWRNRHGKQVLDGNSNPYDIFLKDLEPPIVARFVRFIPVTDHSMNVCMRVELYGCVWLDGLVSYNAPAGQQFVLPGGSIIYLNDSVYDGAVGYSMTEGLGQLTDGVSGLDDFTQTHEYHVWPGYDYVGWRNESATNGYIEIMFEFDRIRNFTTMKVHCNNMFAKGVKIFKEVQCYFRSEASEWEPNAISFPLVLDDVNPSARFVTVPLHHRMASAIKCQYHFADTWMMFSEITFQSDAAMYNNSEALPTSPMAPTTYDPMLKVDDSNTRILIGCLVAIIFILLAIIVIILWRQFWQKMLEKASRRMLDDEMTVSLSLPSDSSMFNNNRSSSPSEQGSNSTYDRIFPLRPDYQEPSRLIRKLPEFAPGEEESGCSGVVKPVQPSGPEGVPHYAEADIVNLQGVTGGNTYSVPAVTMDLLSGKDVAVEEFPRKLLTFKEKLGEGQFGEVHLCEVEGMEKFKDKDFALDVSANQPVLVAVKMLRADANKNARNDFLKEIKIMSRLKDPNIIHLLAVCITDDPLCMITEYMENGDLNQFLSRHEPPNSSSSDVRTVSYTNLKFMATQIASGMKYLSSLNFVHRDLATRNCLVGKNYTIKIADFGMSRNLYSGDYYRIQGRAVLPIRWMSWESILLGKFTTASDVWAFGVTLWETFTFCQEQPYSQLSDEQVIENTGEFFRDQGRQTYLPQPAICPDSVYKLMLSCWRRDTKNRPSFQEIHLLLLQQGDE", "conditions": "3 to 6 uM", "description": "Inhibition of DDR2 at 3 to 6 uM relative to control"}, "[4]": {"molecular_target": "Insulin-like growth factor 1 receptor (Homo sapiens) (UniProt P08069)", "conditions": "3 to 6 uM", "description": "Inhibition of IGF1R at 3 to 6 uM relative to control"}, "[5]": {"molecular_target": "Mitogen-activated protein kinase kinase kinase 11 (Homo sapiens, UniProt Q16584)", "sequence (Q16584 whole entry)": "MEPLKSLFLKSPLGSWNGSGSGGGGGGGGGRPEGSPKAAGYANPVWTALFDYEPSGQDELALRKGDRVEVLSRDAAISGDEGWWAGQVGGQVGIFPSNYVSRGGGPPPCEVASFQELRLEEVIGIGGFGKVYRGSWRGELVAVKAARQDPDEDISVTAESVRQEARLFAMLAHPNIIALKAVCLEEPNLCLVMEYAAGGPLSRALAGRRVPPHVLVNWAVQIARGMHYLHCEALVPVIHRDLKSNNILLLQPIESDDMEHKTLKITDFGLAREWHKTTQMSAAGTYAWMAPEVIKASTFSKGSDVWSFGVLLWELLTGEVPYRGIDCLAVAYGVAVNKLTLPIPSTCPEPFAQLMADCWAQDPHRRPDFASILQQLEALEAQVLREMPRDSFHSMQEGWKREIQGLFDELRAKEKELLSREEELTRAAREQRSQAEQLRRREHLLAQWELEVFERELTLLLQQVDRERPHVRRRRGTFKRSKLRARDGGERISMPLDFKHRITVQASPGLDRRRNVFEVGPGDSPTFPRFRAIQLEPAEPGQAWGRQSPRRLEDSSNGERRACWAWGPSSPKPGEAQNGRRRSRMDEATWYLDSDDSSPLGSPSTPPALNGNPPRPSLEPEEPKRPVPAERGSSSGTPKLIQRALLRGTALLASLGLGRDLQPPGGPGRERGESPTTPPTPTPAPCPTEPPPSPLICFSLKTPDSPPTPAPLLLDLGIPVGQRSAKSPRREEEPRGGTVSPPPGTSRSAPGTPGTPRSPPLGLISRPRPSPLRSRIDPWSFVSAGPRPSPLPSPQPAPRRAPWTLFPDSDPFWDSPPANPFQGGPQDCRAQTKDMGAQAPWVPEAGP", "assay": "Inhibition of MAP3K11"}, "[6]": {"molecular_target": "Ribosomal protein S6 kinase beta-1 (Homo sapiens) (UniProt P23443)", "conditions": "3 to 6 uM", "description": "Inhibition of S6K1 at 3 to 6 uM relative to control"}, "[7]": {"molecular_target": "Proto-oncogene tyrosine-protein kinase Src (Homo sapiens) (UniProt P12931)", "conditions": "3 to 6 uM", "description": "Inhibition of SRC at 3 to 6 uM relative to control"}, "[8]": {"molecular_target": "Serine/threonine-protein kinase mTOR (Homo sapiens) (UniProt P42345)", "conditions": "3 to 6 uM", "description": "Inhibition of mTOR at 3 to 6 uM relative to control"}, "[9]": {"molecular_target": "Dual specificity tyrosine-phosphorylation-regulated kinase 1A (Homo sapiens) (UniProt Q13627)", "conditions": "3 to 6 uM", "description": "Inhibition of DYRK1A at 3 to 6 uM relative to control"}, "[10]": {"molecular_target": "Serine/threonine-protein kinase Chk1 (Homo sapiens) (UniProt O14757)", "conditions": "3 to 6 uM", "description": "Inhibition of CHK1 at 3 to 6 uM relative to control"}, "[11]": {"molecular_target": "Serine/threonine-protein kinase Nek6 (Homo sapiens) (UniProt Q9HC98)", "sequence (Q9HC98 whole entry)": "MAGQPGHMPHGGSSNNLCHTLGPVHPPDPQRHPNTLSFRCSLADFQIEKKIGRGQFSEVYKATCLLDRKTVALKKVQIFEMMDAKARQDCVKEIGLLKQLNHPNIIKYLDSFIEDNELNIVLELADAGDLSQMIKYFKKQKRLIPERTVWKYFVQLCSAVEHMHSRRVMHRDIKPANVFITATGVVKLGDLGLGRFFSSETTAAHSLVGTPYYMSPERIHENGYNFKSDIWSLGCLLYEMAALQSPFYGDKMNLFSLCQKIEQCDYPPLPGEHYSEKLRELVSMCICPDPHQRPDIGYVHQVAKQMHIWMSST", "conditions": "3 to 6 uM", "description": "Inhibition of NEK6 at 3 to 6 uM relative to control"}, "[12]": {"molecular_target": "Epidermal growth factor receptor (Homo sapiens) (UniProt P00533)", "conditions": "3 to 6 uM", "description": "Inhibition of EGFR at 3 to 6 uM relative to control"}, "[13]": {"molecular_target": "Glycogen synthase kinase-3 beta (Homo sapiens) (UniProt P49841)", "sequence (P49841 whole entry, looked up)": "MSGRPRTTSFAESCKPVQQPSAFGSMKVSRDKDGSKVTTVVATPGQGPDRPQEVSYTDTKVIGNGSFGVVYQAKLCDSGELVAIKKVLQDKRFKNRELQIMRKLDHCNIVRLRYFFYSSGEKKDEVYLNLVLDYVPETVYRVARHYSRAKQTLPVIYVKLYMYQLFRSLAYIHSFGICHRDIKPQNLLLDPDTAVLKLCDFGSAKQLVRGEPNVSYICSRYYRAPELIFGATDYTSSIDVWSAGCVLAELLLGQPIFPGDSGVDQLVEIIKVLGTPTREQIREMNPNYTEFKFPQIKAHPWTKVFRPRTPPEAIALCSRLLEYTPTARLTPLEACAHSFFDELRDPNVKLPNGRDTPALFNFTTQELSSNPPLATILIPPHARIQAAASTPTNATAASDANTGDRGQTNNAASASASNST", "conditions": "3 to 6 uM", "description": "Inhibition of GSK3-beta at 3 to 6 uM relative to control"}, "[14]": {"molecular_target": "MAP/microtubule affinity-regulating kinase 3 (Homo sapiens) (UniProt P27448)", "conditions": "3 to 6 uM", "description": "Inhibition of MARK3 at 3 to 6 uM relative to control"}, "[15]": {"molecular_target": "Tyrosine-protein kinase CSK (Homo sapiens) (UniProt P41240)", "conditions": "3 to 6 uM", "description": "Inhibition of CSK at 3 to 6 uM relative to control"}, "[16]": {"molecular_target": "Casein kinase I isoform alpha (Homo sapiens) (UniProt P48729)", "sequence (P48729 2-337 limits assumed)": "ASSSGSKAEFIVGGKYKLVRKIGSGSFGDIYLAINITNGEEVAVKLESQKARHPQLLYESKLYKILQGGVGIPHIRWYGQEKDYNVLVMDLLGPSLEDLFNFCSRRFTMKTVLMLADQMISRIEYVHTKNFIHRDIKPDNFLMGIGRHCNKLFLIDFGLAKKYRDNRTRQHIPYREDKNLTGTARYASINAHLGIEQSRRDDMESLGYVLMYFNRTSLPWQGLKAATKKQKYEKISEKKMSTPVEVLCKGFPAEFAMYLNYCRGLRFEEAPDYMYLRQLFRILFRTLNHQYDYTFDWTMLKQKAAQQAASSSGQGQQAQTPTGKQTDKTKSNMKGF", "conditions": "3 to 6 uM", "description": "Inhibition of CK1 at 3 to 6 uM relative to control"}, "[17]": {"molecular_target": "Inhibitor of nuclear factor kappa-B kinase subunit epsilon (Homo sapiens) (UniProt Q14164)", "conditions": "3 to 6 uM", "description": "Inhibition of IKKE at 3 to 6 uM relative to control"}, "[18]": {"molecular_target": "Myotonin-protein kinase (Homo sapiens) (UniProt Q09013)", "conditions": "3 to 6 uM", "description": "Inhibition of DMPK at 3 to 6 uM relative to control"}, "[19]": {"assay": "Solubility at pH 7.4", "type": "physicochemical", "conditions": "buffer"}, "[20]": {"molecular_target": "Serine/threonine-protein kinase haspin (Homo sapiens) (UniProt Q8TF76)", "sequence (Q8TF76 whole entry)": "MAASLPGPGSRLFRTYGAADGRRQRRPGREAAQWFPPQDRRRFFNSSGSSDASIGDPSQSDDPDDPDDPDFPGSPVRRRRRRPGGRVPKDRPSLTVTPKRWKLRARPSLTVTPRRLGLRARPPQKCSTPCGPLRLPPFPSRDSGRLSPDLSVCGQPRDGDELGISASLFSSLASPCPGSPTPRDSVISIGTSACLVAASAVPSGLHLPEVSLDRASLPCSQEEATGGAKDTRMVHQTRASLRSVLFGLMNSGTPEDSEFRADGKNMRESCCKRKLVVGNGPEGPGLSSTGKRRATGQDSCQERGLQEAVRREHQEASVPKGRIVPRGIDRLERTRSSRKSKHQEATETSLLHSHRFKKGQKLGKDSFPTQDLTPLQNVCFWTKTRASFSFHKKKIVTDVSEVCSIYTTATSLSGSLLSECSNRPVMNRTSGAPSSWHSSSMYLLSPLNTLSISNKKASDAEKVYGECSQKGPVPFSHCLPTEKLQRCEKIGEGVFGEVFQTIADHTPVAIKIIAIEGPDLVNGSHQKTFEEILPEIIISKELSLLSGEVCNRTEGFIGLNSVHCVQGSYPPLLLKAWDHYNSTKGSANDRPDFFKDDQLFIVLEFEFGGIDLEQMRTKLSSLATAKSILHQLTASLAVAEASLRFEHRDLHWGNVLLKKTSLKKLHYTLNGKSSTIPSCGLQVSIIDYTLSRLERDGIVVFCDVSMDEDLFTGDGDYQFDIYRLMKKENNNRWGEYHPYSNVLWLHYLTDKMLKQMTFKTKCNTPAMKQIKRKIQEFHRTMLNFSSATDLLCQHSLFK", "conditions": "3 to 6 uM", "description": "Inhibition of GSG2 at 3 to 6 uM relative to control"}, "[21]": {"assay": "Permeability from basolateral to apical side in human Caco-2 cells", "type": "ADME, cell-based", "conditions": "read-out: permeability"}, "[22]": {"molecular_target": "Lymphokine-activated killer T-cell-originated protein kinase (Homo sapiens) (UniProt Q96KB5)", "conditions": "3 to 6 uM", "description": "Inhibition of PBK at 3 to 6 uM relative to control"}, "[23]": {"molecular_target": "Protein kinase C delta type (Homo sapiens, UniProt Q05655)", "assay": "Inhibition of PRKCD"}, "[24]": {"molecular_target": "Serine/threonine-protein kinase Nek7 (Homo sapiens) (UniProt Q8TDX7)", "assay": "Inhibition of NEK7 at 3 uM relative to control; values are per cent of control"}, "[25]": {"molecular_target": "Serine/threonine-protein kinase Nek6 (Homo sapiens) (UniProt Q9HC98)", "assay": "Inhibition of NEK6 at 3 uM relative to control; values are per cent of control"}, "[26]": {"assay": "Inhibition of CK2 at 3 uM relative to control; values are per cent of control"}, "[27]": {"molecular_target": "Ribosomal protein S6 kinase alpha-5 (Homo sapiens) (UniProt O75582)", "assay": "Inhibition of MSK1 at 3 uM relative to control; values are per cent of control"}, "[28]": {"molecular_target": "Dual specificity mitogen-activated protein kinase kinase 1 (Homo sapiens) (UniProt Q02750)", "sequence (Q02750 whole entry)": "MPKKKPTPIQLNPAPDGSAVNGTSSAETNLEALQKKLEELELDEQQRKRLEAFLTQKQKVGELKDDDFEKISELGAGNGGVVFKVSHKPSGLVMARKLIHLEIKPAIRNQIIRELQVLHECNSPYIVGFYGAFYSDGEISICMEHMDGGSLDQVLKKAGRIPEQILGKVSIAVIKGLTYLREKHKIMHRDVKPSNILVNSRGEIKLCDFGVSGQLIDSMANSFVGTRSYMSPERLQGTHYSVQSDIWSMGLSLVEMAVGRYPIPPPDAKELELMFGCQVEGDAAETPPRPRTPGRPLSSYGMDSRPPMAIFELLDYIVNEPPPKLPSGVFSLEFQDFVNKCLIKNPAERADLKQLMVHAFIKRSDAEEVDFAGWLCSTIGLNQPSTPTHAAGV", "assay": "Inhibition of MKK1 at 3 uM relative to control; values are per cent of control"}, "[29]": {"molecular_target": "Glycogen synthase kinase-3 beta (Homo sapiens) (UniProt P49841)", "assay": "Inhibition of GSK3-beta at 3 uM relative to control; values are per cent of control"}, "[30]": {"molecular_target": "Mitogen-activated protein kinase 1 (Homo sapiens) (UniProt P28482)", "assay": "Inhibition of MAPK2 at 3 uM relative to control; values are per cent of control"}, "[31]": {"molecular_target": "Dual specificity tyrosine-phosphorylation-regulated kinase 1A (Homo sapiens) (UniProt Q13627)", "assay": "Inhibition of DYRK1A at 3 uM relative to control; values are per cent of control"}, "[32]": {"molecular_target": "MAP kinase-interacting serine/threonine-protein kinase 1 (Homo sapiens) (UniProt Q9BUB5)", "assay": "Inhibition of MNK1 at 3 uM relative to control; values are per cent of control"}, "[33]": {"molecular_target": "MAP kinase-activated protein kinase 5 (Homo sapiens) (UniProt Q8IW41)", "assay": "Inhibition of PRAK at 3 uM relative to control; values are per cent of control"}, "[34]": {"molecular_target": "RAC-beta serine/threonine-protein kinase (Homo sapiens) (UniProt P31751)", "assay": "Inhibition of PKBbeta at 3 uM relative to control; values are per cent of control"}, "[35]": {"molecular_target": "Ribosomal protein S6 kinase alpha-1 (Homo sapiens) (UniProt Q15418)", "assay": "Inhibition of MAPKAPK1A at 3 uM relative to control; values are per cent of control"}, "[36]": {"molecular_target": "Casein kinase I isoform alpha (Homo sapiens) (UniProt P48729)", "assay": "Inhibition of CK1 at 3 uM relative to control; values are per cent of control"}, "[37]": {"molecular_target": "MAP kinase-activated protein kinase 2 (Homo sapiens) (UniProt P49137)", "assay": "Inhibition of MAPKAPK2 at 3 uM relative to control; values are per cent of control"}, "[38]": {"molecular_target": "Cyclin-dependent kinase 2 (Homo sapiens) (UniProt P24941)", "assay": "Inhibition of CDK2 at 3 uM relative to control; values are per cent of control"}, "[39]": {"molecular_target": "Serine/threonine-protein kinase D1 (Homo sapiens) (UniProt Q15139)", "assay": "Inhibition of PKD1 at 3 uM relative to control; values are per cent of control"}}}
{"compound": "COc1ccc(C(=O)NCc2cccc(C(=O)Nc3ccc4c(c3)CNCC4)c2)cc1OC", "values": [{"measurement": "residual activity", "setting": "[1]", "result": "> 50", "unit": "%"}, {"measurement": "residual activity", "setting": "[2]", "result": "> 50", "unit": "%"}, {"measurement": "residual activity", "setting": "[3]", "result": "> 50", "unit": "%"}, {"measurement": "residual activity", "setting": "[4]", "result": "> 50", "unit": "%"}, {"measurement": "IC50", "setting": "[5]", "result": "> 10", "unit": "µM"}, {"measurement": "residual activity", "setting": "[6]", "result": "> 50", "unit": "%"}, {"measurement": "residual activity", "setting": "[7]", "result": "> 50", "unit": "%"}, {"measurement": "residual activity", "setting": "[8]", "result": "> 50", "unit": "%"}, {"measurement": "residual activity", "setting": "[9]", "result": "> 50", "unit": "%"}, {"measurement": "residual activity", "setting": "[10]", "result": "> 50", "unit": "%"}, {"measurement": "residual activity", "setting": "[11]", "result": "> 50", "unit": "%"}, {"measurement": "residual activity", "setting": "[12]", "result": "> 50", "unit": "%"}, {"measurement": "residual activity", "setting": "[13]", "result": "> 50", "unit": "%"}, {"measurement": "residual activity", "setting": "[14]", "result": "> 50", "unit": "%"}, {"measurement": "residual activity", "setting": "[15]", "result": "> 50", "unit": "%"}, {"measurement": "residual activity", "setting": "[16]", "result": "> 50", "unit": "%"}, {"measurement": "residual activity", "setting": "[17]", "result": "> 50", "unit": "%"}, {"measurement": "residual activity", "setting": "[18]", "result": "> 50", "unit": "%"}, {"measurement": "solubility", "setting": "[19]", "result": 49, "unit": "µg/mL"}, {"measurement": "residual activity", "setting": "[20]", "result": "> 50", "unit": "%"}, {"measurement": "Papp B→A", "setting": "[21]", "result": 5.4, "unit": "×10⁻⁶ cm/s"}, {"measurement": "residual activity", "setting": "[22]", "result": "> 50", "unit": "%"}, {"measurement": "IC50", "setting": "[23]", "result": "> 10", "unit": "µM"}]}
{"compound": "NC(=O)c1ccc(NC(=O)NCc2cccc(C(=O)Nc3ccc4c(c3)CNCC4)c2)cc1", "values": [{"measurement": "residual activity", "setting": "[24]", "result": "> 50", "unit": "%"}, {"measurement": "residual activity", "setting": "[25]", "result": "> 50", "unit": "%"}, {"measurement": "residual activity", "setting": "[26]", "result": "> 50", "unit": "%"}, {"measurement": "residual activity", "setting": "[27]", "result": "> 50", "unit": "%"}, {"measurement": "residual activity", "setting": "[28]", "result": "> 50", "unit": "%"}, {"measurement": "residual activity", "setting": "[29]", "result": "> 50", "unit": "%"}, {"measurement": "residual activity", "setting": "[30]", "result": "> 50", "unit": "%"}, {"measurement": "residual activity", "setting": "[31]", "result": "> 50", "unit": "%"}, {"measurement": "residual activity", "setting": "[32]", "result": "> 50", "unit": "%"}, {"measurement": "residual activity", "setting": "[33]", "result": "> 50", "unit": "%"}, {"measurement": "residual activity", "setting": "[34]", "result": "> 50", "unit": "%"}, {"measurement": "residual activity", "setting": "[35]", "result": "> 50", "unit": "%"}, {"measurement": "residual activity", "setting": "[36]", "result": "> 50", "unit": "%"}, {"measurement": "residual activity", "setting": "[37]", "result": "> 50", "unit": "%"}, {"measurement": "residual activity", "setting": "[38]", "result": "> 50", "unit": "%"}, {"measurement": "residual activity", "setting": "[39]", "result": "> 50", "unit": "%"}]}
